Measured values: patent publication US11760889B2, “Unsaturated fatty alcohol derivatives from natural oil metathesis” (priority 2012, dated 2023)
Like-named read-outs stand apart in the source and are kept apart here.

Experiments:
[1] = Emulsion polymerization surfactant screen
Procedure: A reaction kettle is charged with sodium bicarbonate (0.50 g), water (225 g), and seed latex (30 g) and the mixture is heated to and held at 83° C. under nitrogen with stirring at 200 rpm. […] Methyl methacrylate (255 g), butyl acrylate (235 g), and methacrylic acid (10 g) are combined in an Erlenmeyer flask and mixed. […] Separately, two other mixtures are prepared: an initiator shot mixture of ammonium persulfate (1.0 g) in water (20 g), and a cofeed mixture of ammonium persulfate (2.70 g), sodium bicarbonate (1.50 g), and water (75 g); the total amount of initiator used is 0.74% based on monomers. The initiator shot is charged to the 83° C. reaction kettle dropwise over 1 min, then held for 10 min. The monomer emulsion is then fed to the kettle at 2.1 mL/min. for 10 min. The feed rate of the monomer emulsion is increased to 4.2 mL/min., and the cofeed mixture is started at 0.37 mL/min. Total addition time is 3 h, during which particle size and temperature are monitored. After addition of the monomer emulsion is complete, a water wash (50 g) is started, and heating at 83° C. continues for 1 h. The product is cooled. The pH is adjusted to 7.5 with dilute ammonium hydroxide solution. A preservative is added, and the mixture is filtered.

[2] = Water-soluble herbicide formulation testing (standard dilution test, emulsion stability); assay type: physicochemical; set-up: key to Emulsion stability, mL separation, 24 h: Tr = trace; conditions: 342 ppm water;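 note: diluted in a 50 mL Nessler cylinder held at 30 °C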
Procedure: Surfactant candidates for water soluble herbicide applications are examined as a replacement for the anionic, nonionic, or anionic/nonionic blend portion and compared to a known industry adjuvant standard for use in paraquat, a water soluble herbicide concentrate formulation. A standard dilution test is conducted whereby the concentrates are diluted in water to determine if solubility is complete.
The cylinder is stoppered and inverted ten times. Solubility is recorded as complete or incomplete. Cylinders are allowed to stand and the amount (in mL) and type of separation are recorded after 30 min., 1 h, 2 h, and 24 h. Results of the solubility testing appear in Table 3 below.
An eight to ten mole alkyl phenol ethoxylate surfactant (0.7 g) is added and vigorously mixed for 30 s. Test sample (0.7 g) is added and mixing resumes for 30 s.
Test sample (0.7 g) is added and vigorously mixed for 30 s. Sodium linear alkylbenzene sulfonate (“NaLAS,” 0.7 g) is added and mixing resumes for 30 s.

[3] = Anionic emulsifier: emulsion stability testing of EW concentrate (modified ASTM E1116-98)
Procedure: Turbidity changes are noted and recorded.
A Mohr pipette is used to feed EW concentrate to each cylinder. Cylinders are stoppered and inverted ten times, then allowed to stand for 0.5, 1, and 24 h while recording stability at each time as type and % separation.
Spontaneity is recorded according to the following criteria: (1) poor: very thin emulsion cloud with major separation of oil droplets; (2) fair: thin emulsion cloud with minor separation of oil droplets; (3) good: thin emulsion cloud reaches the bottom of the cylinder without separation of any type; (4) excellent: thick emulsion cloud reaches the bottom of the cylinder without separation of any type.

[4] = Surfactant phase behavior study (cross-polarized microscopy); assay type: physicochemical; conditions: room temperature (20-22° C.)
Procedure: Phase behavior is observed using an Olympus BH-2 cross-polarized microscope at 100-400× and room temperature (20° C. to 22° C.). The inventive monounsaturated sulfates and ethoxylate sulfates are compared with their saturated analogs, and in some cases, commercial surfactants.
Samples are prepared by diluting the most concentrated product gradually with deionized water. When the surfactant concentration approaches a phase transition, the concentration is varied at 2-4% intervals to estimate the phase boundary. The actives level reported in Table 15 for each phase boundary is within ±5% of the true boundary.
Samples are loaded between a microscope slide and cover glass and are allowed to equilibrate before observation. Microscopic texture is analyzed and used to determine the phase. For some samples, an AR 2000 rheometer (TA Instruments) is used to measure viscosity at 25° C. to further verify phase behavior.

[5] = Adjuvant (anionic/nonionic) test sample

For C12 Alcohol Sodium Sulfate [A12-3], the pre-emulsion stability ([1]; surfactant level in EP 0.50%) was “stable”, the “Emulsion stability, mL separation, 1 h” value [2, 5] was 0 mL and the “Emulsion stability, mL separation, 24 h” value [2, 5] was “Tr”. The “Emulsion stability, mL separation, 1 h” value ([2]; Anionic test sample) was 0 mL, the “Emulsion stability, mL separation, 24 h” value ([2]; Anionic test sample) was 0 mL and the “Emulsion stability, mL separation, 1 h” value ([2]; Nonionic test sample) was 0 mL. The “Emulsion stability, mL separation, 24 h” value ([2]; Nonionic test sample) was “Tr”, the “% Separation, 1 h” value ([3]; 34 ppm water) was 4.5% and the “% Separation, 24 h” value ([3]; 34 ppm water) was 5.7%. For the same molecule, the “% Separation, 1 h” value ([3]; 1000 ppm water) was 3%, the “% Separation, 24 h” value ([3]; 1000 ppm water) was 4% and the “Estimated Phase Region: Hexagonal” value [4] was 38-66 % actives. The “Estimated Phase Region: Isotropic Clear” value [4] was 0-38 % actives, the “Estimated Phase Region: Lamellar” value [4] was 66-83 % actives and the “Estimated Phase Region: Solid/gum/paste” value [4] was 83-100 % actives.
In the case of `C=CCCCCCCCCOS(=O)(=O)O.N` [A10-2], the “Emulsion stability, mL separation, 1 h” value [2, 5] is reported as 0 mL, the “Emulsion stability, mL separation, 24 h” value [2, 5] is reported as 0 mL and the “Emulsion stability, mL separation, 1 h” value ([2]; Anionic test sample) is reported as 0 mL. The “Emulsion stability, mL separation, 24 h” value ([2]; Anionic test sample) was 0 mL, the “Emulsion stability, mL separation, 1 h” value ([2]; Nonionic test sample) was 0 mL and the “Emulsion stability, mL separation, 24 h” value ([2]; Nonionic test sample) was “Tr”. The “% Separation, 1 h” value ([3]; 34 ppm water) was 3.8%, the “% Separation, 24 h” value ([3]; 34 ppm water) was 4% and the “% Separation, 1 h” value ([3]; 1000 ppm water) was 3.1%. For the same molecule, the “% Separation, 24 h” value ([3]; 1000 ppm water) was 3.8%, the “Estimated Phase Region: Hexagonal” value [4] was 42-64 % actives and the “Estimated Phase Region: Lamellar” value [4] was 64-80 % actives. The “Estimated Phase Region: Solid/gum/paste” value [4] was 80-100 % actives and the “Estimated Phase Region: Unknown” value [4] was 0-42 % actives.
In the case of “3 Mole Ethoxylated C12 Alcohol, Sodium Sulfate [A12-9]”, the “Emulsion stability, mL separation, 1 h” value [2, 5] is reported as 0 mL, the “Emulsion stability, mL separation, 24 h” value [2, 5] is reported as 0 mL and the “Emulsion stability, mL separation, 1 h” value ([2]; Anionic test sample) is reported as 0 mL. For the same molecule, the “Emulsion stability, mL separation, 24 h” value ([2]; Anionic test sample) was 0 mL, the “Emulsion stability, mL separation, 1 h” value ([2]; Nonionic test sample) was 0 mL and the “Emulsion stability, mL separation, 24 h” value ([2]; Nonionic test sample) was 0 mL. For the same molecule, the “% Separation, 1 h” value ([3]; 34 ppm water) was 3.3%, the “% Separation, 24 h” value ([3]; 34 ppm water) was 4.2% and the “% Separation, 1 h” value ([3]; 1000 ppm water) was 2.1%. The “% Separation, 24 h” value ([3]; 1000 ppm water) was 3%, the “Estimated Phase Region: Cubic” value [4] was 60-68 % actives and the “Estimated Phase Region: Hexagonal” value [4] was 31-60 % actives. For the same molecule, the “Estimated Phase Region: Isotropic Clear” value [4] was 0-31 % actives, the “Estimated Phase Region: Lamellar” value [4] was 68-87 % actives and the “Estimated Phase Region: Solid/gum/paste” value [4] was 87-100 % actives.
With “calcium alkylbenzenesulfonate [Control 1]” the pre-emulsion stability [1] was “stable”.
